Source: patent US10226041B2, “Compositions and methods for improving the quality of processed sperm” (Inguran, LLC, priority 2011, dated 2019)
Values joined by “and” are separate entries in the source; they are usually repeats but may differ in a detail not shown here. Identical values can stand only once.

Tested on: sex-sorted sperm cells
Assay: CASA post-thaw motility of sex sorted bull sperm treated with OSR
Type: cell-based, bovine
Set-up: key to BCF: beat cross frequency in Hz; key to ALH: lateral head displacement in μm; key to STR / LIN: percent; key to Motile: percent motile sperm; key to VAP / VSL / VCL: velocity in μm/s
Conditions: for ALH / BCF / LIN / Motile / Prog / STR / VAP / VCL / VSL: 3 hr post-thaw
Text: 5. Sperm Motility Evaluations by CASA. A comparison of viewing chambers and slides can be done in a variety of IVOS instruments, which for example only can be a Hamilton-Thorne IVOS (Hamilton-Thorne, Beverly, Mass.). Instrument settings: image capture; frames per second=60; number of frames=30; cell detection; minimum contrast=50; minimum cell size=5; defaults, cell size=5; cell intensity=50; progressive cells, path velocity=50 um/s; straightness ≥70%; slow cells (um/s); average path velocity (VAP, <30 um/s), straight-line velocity (VSL, <15 um/s). The CASA motility variables measured can be a percentage of total motile sperm (motile), percentage of progressively motile sperm (progressive), VAO, VSL, curvilinear velocity (VCL, um/s), average lateral head displacement (ALK, um) and the number of times the sperm head crosses the mean path/s (BCF, Hz), straight-line sperm motility (STR, %), and linear sperm motility (LIN, %). See for instance, Lenz, R W, et al., J Anim Sci (2011) 89:383-388, incorporated by reference herein in its entirety.
One set of semen from each bull was used as a control while to the remaining sets of semen samples were added vitamin B12, as the antioxidant, at respective concentrations of 0.5 mg/ml and 0.25 mg/ml. For each sample, the same concentration of vitamin B12 was added (i) during the staining process, and (ii) in the catch fluid of the collection vessel. […] Sperm samples were sorted in “High Purity” mode, and the collected sex-sorted sperm were extended with a cryoextender, which in some cases again contained the same concentration of vitamin B12 and the samples were frozen. Three hours after thawing (which is a standard time frame to conduct quality control assessments on sorted frozen thawed sperm samples) the thawed samples were put through CASA, a machine that provides various data on sperm including motility and progressive motility information.
In the tables below: VAP (average path velocity (μm/s)); VSL (straight-line velocity (μm/s)); VCL (curvilinear velocity (μm/s)); ALH (average lateral head displacement (μm)); BCF (the number of times the sperm head crosses the mean path/s in Hz); STR (percent straight-line sperm motility); LIN (percent linear sperm motility); PIA (percent intact acrosomes); motile (percent motile sperm); and progressive (percent progressively motile sperm).
There is no correlation with regard to randomly assigned names such as “Bull A.” Bull A from Example 5 is not the same bull as Bull A from Example 7.
In both cases the concentration of the vitamin B12 was 1 mg/ml. For all other bulls in the table below unless otherwise indicated, the concentration of vitamin B12 added was also 1 mg/ml.
In an additional experiment, motility and progressive motility were checked 3.75 hours after thawing a sex sorted semen sample treated with the antioxidant. The OSR was not added to the control sample. The semen sample was derived from a single bull. 0.25 mg/ml concentration of vitamin B12 was added to the test sample during the staining step, the collecting step (in the catch fluid of the collecting vessel) and in the cryoprotectant extender prior to freezing the sample.
[…] The OSR was not added to the control samples. The semen samples were derived from two Holstein bulls.

[1] = 0.5 mg/ml, 2 step F, 3 hrs post-thaw, Bulls 1-5
[2] = .15 mg/ml, 3 step, Holstein, 1M/straw
[3] = .15 mg/ml, 3 step, Holstein, 2.1M/straw
[4] = .15 mg/ml, 3 step, Jersey, 2.1M/straw
[5] = .25 mg/ml, 3 step, Holstein, 1M/straw
[6] = .25 mg/ml, 3 step, Holstein, 2.1M/straw
[7] = .25 mg/ml, 3 step, Holstein, 5M/straw
[8] = .25 mg/ml, 3 step, Jersey, 2.1M/straw
[9] = .35 mg/ml, 3 step, Holstein, 1M/straw
[10] = .35 mg/ml, 3 step, Holstein, 2.1M/straw
[11] = .35 mg/ml, 3 step, Holstein, 5M/straw
[12] = .5 mg/ml, 3 step, Holstein, 5M/straw

## vitamin B12
0 hr, 1 step-stain (+−−), Bull C (Jersey), Trial 1
  % Motility: 80%
0 hr, 1 step-stain (+−−), Bull C (Jersey), Trial 2
  % Motility: 61%
0 hr, 2 step-stain (++−), Bull C (Jersey), Trial 1
  % Motility: 74%
0 hr, 2 step-stain (++−), Bull C (Jersey), Trial 2
  % Motility: 57%
0 hr, 3 step (+++), Bull C (Jersey), Trial 1
  % Motility: 70%
0 hr, 3 step (+++), Bull C (Jersey), Trial 2
  % Motility: 76%
0 hr, vitamin B12 0.5 mg/ml, 3 step, Bull A (Jersey)
  % Motility: 60%
0 hr, vitamin B12 0.5 mg/ml, 3 step, Bull B (Holstein)
  % Motility: 79%
0.5 mg/ml, 2 step F (catch fluid + cryoextender), 3 hrs post-thaw, Bulls 1-5
  Motile (percent motile sperm): 70.5% and 74.5% and 81.5% and 51% and 63.5%
[1]
  ALH (average lateral head displacement): 4 μm and 5 μm
  BCF (times sperm head crosses the mean path/s): 21.5 Hz and 22.5 Hz and 26 Hz and 20.5 Hz and 23 Hz
  LIN (percent linear sperm motility): 61% and 52.5% and 49% and 47%
  STR (percent straight-line sperm motility): 85.5% and 84.5% and 83.5% and 84% and 86.5%
  VAP (average path velocity): 77 μm/s and 56 μm/s and 60 μm/s and 50 μm/s
  VCL (curvilinear velocity): 108 μm/s and 98 μm/s and 109 μm/s and 101 μm/s and 94 μm/s
  VSL (straight-line velocity): 66 μm/s and 51 μm/s and 53 μm/s and 47 μm/s and 45 μm/s
3 hr, 1 step-stain (+−−), Bull C (Jersey), Trial 1
  % Motility: 47%
3 hr, 2 step-stain (++−), Bull C (Jersey), Trial 1
  % Motility: 57%
3 hr, 2 step-stain (++−), Bull C (Jersey), Trial 2
  % Motility: 25%
3 hr, 3 step (+++), Bull C (Jersey), Trial 1
  % Motility: 75%
3 hr, 3 step (+++), Bull C (Jersey), Trial 2
  % Motility: 42%
3 hr, vitamin B12 0.5 mg/ml, 3 step, Bull A (Jersey)
  % Motility: 42%
3 hr, vitamin B12 0.5 mg/ml, 3 step, Bull B (Holstein)
  % Motility: 48%
[2]
  ALH: 4
  BCF: 12
  LIN: 53
  Motile: 48
  Prog: 18
  STR: 88
  VAP: 48
  VCL: 81
  VSL: 42
[3]
  ALH: 5
  BCF: 18
  LIN: 48
  Motile: 49
  Prog: 10
  STR: 86
  VAP: 44
  VCL: 79
  VSL: 38
[4]
  ALH: 6
  BCF: 15
  LIN: 47
  Motile: 25
  Prog: 4
  STR: 84
  VAP: 42
  VCL: 75
  VSL: 35
[5]
  ALH: 4
  BCF: 22
  LIN: 53
  Motile: 48
  Prog: 29
  STR: 87
  VAP: 55
  VCL: 92
  VSL: 47
[6]
  ALH: 5
  BCF: 20
  LIN: 50
  Motile: 48
  Prog: 18
  STR: 87
  VAP: 46
  VCL: 81
  VSL: 40
[7]
  ALH: 7
  BCF: 14
  LIN: 42
  Motile: 24
  Prog: 2
  STR: 70
  VAP: 41
  VCL: 69
  VSL: 28
[8]
  ALH: 5
  BCF: 20
  LIN: 50
  Motile: 48
  Prog: 20
  STR: 85
  VAP: 51
  VCL: 87
  VSL: 43
[9]
  ALH: 4
  BCF: 23
  LIN: 55
  Motile: 65
  Prog: 46
  STR: 88
  VAP: 58
  VCL: 94
  VSL: 51
[10]
  ALH: 5
  BCF: 23
  LIN: 53
  Motile: 46
  Prog: 30
  STR: 88
  VAP: 58
  VCL: 99
  VSL: 51
[11]
  ALH: 7
  BCF: 14
  LIN: 43
  Motile: 28
  Prog: 3
  STR: 69
  VAP: 41
  VCL: 68
  VSL: 32
[12]
  ALH: 6
  BCF: 15
  LIN: 43
  Motile: 14
  Prog: 3
  STR: 70
  VAP: 43
  VCL: 71
  VSL: 30
